IC50 data for 22 compounds are collected here from patent publication US10689378B2, “Triazolopyridine compounds and uses thereof” (Novartis AG, priority 2016, dated 2020).

Test [1] deals with wild type PRC2 (wtPRC2) complex (Homo sapiens, UniProt O75530). The test is described as follows: EED LC-MS assay (SAH production by PRC2). The test is classed as biochemical. The following applies: read-out: (b) IC50, EED LC-MS Qualified. On the procedure: Compounds of the present invention were assessed for their ability to inhibit PRC2 activity in a pentameric complex of EZH2, SUZ12, EED, Rbap48 and AEBP in biochemical assays. The ability of compounds of the present invention to inhibit cellular activity of PRC2 was assessed by analysing histone H3 lysine 27 methylation in human cell lines. The ability of compounds of the present invention to inhibit cancers was derived from their ability to modulate activity in human cancer cell lines bearing specific dependence to PRC2 activity to maintain cancerous growth.
Representative compounds of the present invention were serially and separately diluted 3-fold in DMSO to obtain a total of eight or twelve concentrations. Then the test compounds at each concentration (120 nL of each) were transferred by Mosquito into a 384-well Perkin Elmer ProxiPlate 384 plus plates. Solutions (6 μL) of 24 nM the wild type PRC2 (wtPRC2) complex and 2 μM SAM in reaction buffer (20 mM Tris, pH 8.0, 0.1% BSA, 0.01% Triton, 0.5 mM DTT) were added to the wells that were then incubated with the test compound for 20 min. A 6 μL solution of 3 μM of the peptide substrate H3K27Me0 (histone H3[21-44]-biotin) in reaction buffer was added to initiate each reaction. The final components in the reaction solution include 12 nM wtPRC2 complex, 1 μM SAM, and 1.5 μM H3K27me0 peptide with varying concentration of the compounds. A positive control consisted of the enzyme, 1 μM SAM and 1.5 μM substrate in the absence of the test compound, and a negative control consisted of 1 μM SAM and 1.5 μM substrate only. Each reaction was incubated at rt for 120 min, then stopped by addition of 3 μL per of quench solution (2.5% TFA with 320 nM d4-SAH). The reaction mixture was centrifuged (Eppendorf centrifuge 5810, Rotor A-4-62) for 2 min at 2000 rpm and read on an API 4000 triple quadrupole mass spec with Turbulon Spray (Applied Biosystem) coupled with Prominence UFLC (Shimadzu). The levels of SAH production were then normalized based on the values coming from the positive and negative controls to give percent enzyme activities. The data were then fit to a dose response equation using the program Helios to get the IC50 values of the test compound.

For the next test, the target named is T1, EED (1-441)-His protein (Homo sapiens, UniProt O75530).
T1 construct: 30 nM EED (1-441)-His protein
The test is described as follows: EED-H3K27Me3 peptide competition binding assay by AlphaScreen. The following applies: read-out: (a) IC50, EED Alphascreen binding Qualified. The method, boiled down: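 Serially diluted compound (12 points, 3-fold) incubated 20 min with 30 nM EED(1-441)-His and 15 nM biotin-H3K27Me3(19-33) peptide in 25 mM HEPES pH 8, 0.02% Tween-20, 0.5% BSA. Ni-chelate acceptor/streptavidin donor beads (10 μg/mL each) added, 1 h rt dark; 615 nm emission normalized to controls, dose-response fit for IC50.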
On the technique in general: Bead proximity is the source of the signal in Alpha formats.

Test [2] has as its system H3K27 methylation in G401 cell. The test can be described thus: ELISA (H3K27 methylation) assay in G401 cells. The following applies: Homo sapiens, G-401, read-out: (c) IC50, ELISA Qualified. The test is classed as cell-based, human. The method, boiled down:
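G401 cells treated 48 h with 3-fold dilutions (8 or 12 points, top 20 μM). Acid-extracted histones probed by ELISA for H3K27me3 or H3K27me2 with ECL readout, normalized to total H3. Percent inhibition versus DMSO fitted to dose-response curve for IC50.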
On the technique in general: ELISA stands for enzyme-linked immunosorbent assay.

Structures are written as SMILES.

T1 sequence (O75530 whole entry): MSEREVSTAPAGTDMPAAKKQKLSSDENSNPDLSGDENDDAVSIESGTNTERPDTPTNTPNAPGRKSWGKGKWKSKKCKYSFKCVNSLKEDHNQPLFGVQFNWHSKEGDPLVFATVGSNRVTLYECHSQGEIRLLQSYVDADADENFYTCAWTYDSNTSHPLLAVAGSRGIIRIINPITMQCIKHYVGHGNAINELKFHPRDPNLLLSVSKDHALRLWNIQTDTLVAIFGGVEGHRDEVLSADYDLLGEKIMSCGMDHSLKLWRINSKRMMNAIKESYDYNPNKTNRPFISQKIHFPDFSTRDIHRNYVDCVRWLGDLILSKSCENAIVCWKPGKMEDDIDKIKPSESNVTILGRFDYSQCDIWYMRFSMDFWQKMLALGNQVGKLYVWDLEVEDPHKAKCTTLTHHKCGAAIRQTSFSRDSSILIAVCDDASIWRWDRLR
Chain of wild type PRC2 (wtPRC2) complex (O75530 whole entry): as above
Chain of wild type PRC2 (wtPRC2) complex (Q15910 whole entry partner): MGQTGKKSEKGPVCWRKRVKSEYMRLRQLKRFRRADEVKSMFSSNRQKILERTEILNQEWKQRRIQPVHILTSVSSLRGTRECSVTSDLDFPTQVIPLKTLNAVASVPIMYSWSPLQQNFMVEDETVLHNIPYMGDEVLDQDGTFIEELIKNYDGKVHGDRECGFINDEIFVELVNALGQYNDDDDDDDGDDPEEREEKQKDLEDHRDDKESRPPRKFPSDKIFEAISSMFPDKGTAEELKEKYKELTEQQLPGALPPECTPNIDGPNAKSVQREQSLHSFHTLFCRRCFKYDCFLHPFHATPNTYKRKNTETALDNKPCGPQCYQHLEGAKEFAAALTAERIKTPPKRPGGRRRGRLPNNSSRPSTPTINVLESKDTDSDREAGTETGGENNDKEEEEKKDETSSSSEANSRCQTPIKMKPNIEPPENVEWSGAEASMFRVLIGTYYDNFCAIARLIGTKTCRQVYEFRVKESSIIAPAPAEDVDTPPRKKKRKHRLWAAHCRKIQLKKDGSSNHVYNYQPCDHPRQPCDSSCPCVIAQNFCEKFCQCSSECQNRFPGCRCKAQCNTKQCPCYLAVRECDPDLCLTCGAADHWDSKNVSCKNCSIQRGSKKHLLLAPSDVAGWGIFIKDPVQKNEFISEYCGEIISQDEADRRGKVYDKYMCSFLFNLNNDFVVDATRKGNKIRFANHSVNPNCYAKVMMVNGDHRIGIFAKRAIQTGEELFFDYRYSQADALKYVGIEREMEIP
Chain of wild type PRC2 (wtPRC2) complex (Q15022 whole entry partner): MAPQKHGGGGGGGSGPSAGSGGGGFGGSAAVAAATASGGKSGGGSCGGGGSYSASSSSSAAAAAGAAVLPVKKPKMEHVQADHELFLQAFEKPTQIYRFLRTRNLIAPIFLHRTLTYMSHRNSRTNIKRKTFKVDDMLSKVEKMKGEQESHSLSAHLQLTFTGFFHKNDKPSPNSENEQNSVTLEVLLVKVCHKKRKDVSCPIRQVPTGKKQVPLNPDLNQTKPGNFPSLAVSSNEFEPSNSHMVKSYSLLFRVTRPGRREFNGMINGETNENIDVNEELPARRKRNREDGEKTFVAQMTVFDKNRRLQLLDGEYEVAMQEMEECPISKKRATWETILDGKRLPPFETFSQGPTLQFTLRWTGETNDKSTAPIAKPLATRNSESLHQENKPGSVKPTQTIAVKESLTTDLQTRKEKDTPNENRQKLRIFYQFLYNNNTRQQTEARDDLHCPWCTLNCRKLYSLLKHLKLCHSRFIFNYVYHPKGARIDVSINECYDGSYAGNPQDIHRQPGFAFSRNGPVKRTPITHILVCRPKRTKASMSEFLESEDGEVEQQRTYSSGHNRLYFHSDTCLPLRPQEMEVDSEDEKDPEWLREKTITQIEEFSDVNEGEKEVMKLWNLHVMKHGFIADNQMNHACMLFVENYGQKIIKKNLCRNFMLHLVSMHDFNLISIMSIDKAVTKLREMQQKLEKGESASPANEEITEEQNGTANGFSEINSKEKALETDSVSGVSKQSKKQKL
Chain of wild type PRC2 (wtPRC2) complex (Q09028 whole entry partner): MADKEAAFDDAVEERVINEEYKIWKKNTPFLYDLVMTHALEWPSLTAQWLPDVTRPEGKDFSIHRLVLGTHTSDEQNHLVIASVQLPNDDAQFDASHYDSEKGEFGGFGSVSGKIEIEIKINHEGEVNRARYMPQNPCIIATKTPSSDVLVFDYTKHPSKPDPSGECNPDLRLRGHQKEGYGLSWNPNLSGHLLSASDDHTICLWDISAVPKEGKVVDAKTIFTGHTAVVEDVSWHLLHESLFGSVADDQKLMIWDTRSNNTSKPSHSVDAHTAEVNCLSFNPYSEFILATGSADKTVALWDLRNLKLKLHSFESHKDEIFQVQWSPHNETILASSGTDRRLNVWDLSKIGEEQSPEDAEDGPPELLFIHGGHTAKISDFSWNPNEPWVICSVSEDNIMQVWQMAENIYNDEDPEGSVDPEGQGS
Chain of wild type PRC2 (wtPRC2) complex (Q6ZN18 whole entry partner): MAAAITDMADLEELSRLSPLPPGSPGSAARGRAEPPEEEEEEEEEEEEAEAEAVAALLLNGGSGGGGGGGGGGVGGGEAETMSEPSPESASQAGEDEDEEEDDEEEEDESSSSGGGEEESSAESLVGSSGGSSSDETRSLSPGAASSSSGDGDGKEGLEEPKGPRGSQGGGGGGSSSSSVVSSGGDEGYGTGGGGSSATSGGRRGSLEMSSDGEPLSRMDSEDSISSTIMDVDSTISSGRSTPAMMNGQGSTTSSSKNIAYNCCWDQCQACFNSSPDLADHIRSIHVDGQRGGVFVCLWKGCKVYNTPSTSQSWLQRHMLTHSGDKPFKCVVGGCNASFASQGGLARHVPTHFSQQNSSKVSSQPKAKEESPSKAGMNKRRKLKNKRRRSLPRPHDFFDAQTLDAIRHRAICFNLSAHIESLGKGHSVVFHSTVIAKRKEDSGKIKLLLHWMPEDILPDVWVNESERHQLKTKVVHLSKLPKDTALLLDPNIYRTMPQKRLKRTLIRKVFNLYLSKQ

Turning to `COc1ccccc1CNc1ccc(-c2ccc(CN(C)C)cc2)c2nncn12` [Example 15, 8-(4-((dimethylamino)methyl)phenyl)-N-(2-methoxybenzyl)-[1,2,4] triazolo[4,3-a]pyridin-5-amine], the IC50 in test [1] stood at 66.3 nM; at EED (1-441)-His protein it was 14.9 nM; in test [2], 17.5 nM.
As to `COc1ccc(-c2ccc(NCc3ccccc3OC)n3cnnc23)cn1` [Example 16, N-(2-methoxybenzyl)-8-(6-methoxypyridin-3-yl)-[1,2,4] triazolo[4,3-a]pyridin-5-amine], the half-inhibitory concentration (IC50) in test [1] was determined as 377 nM; at EED (1-441)-His protein, 56.2 nM; in test [2] it was 158 nM.
On the same counts, the results for `COc1ccccc1CNc1ccc(-c2ccc(S(=O)(=O)N3CCN(C)CC3)cc2)c2nncn12` [Example 18, N-(2-methoxybenzyl)-8-(4-((4-methylpiperazin-1-yl)sulfonyl)phenyl)-[1,2,4] triazolo[4,3-a]pyridin-5-amine] are 930 nM, 81.7 nM and 114 nM.
The like results for `CN(C)Cc1ccc(-c2ccc(NCc3ccccc3OC(F)F)n3cnnc23)cc1` [Example 19, N-(2-(difluoromethoxy)benzyl)-8-(4-((dimethylamino)methyl)phenyl)-[1,2,4]triazolo[4,3-a] pyridin-5-amine] were, in that order, 587 nM, 169 nM and 363 nM.
The like results for `COc1ccccc1CNc1ccc(-c2cnc(N3CCN(C)CC3)c(C)c2)c2nncn12` [Example 20, N-(2-methoxybenzyl)-8-(5-methyl-6-(4-methylpiperazin-1-yl)pyridin-3-yl)-[1,2,4]triazolo[4,3-a]pyridin-5-amine] were, in that order, 248 nM, 79 nM and 185 nM.
With `COc1ccccc1CNc1ccc(-c2ccc(N3CCN(C)CC3)nc2)c2nncn12` [Example 21, N-(2-methoxybenzyl)-8-(6-(4-methylpiperazin-1-yl)pyridin-3-yl)-[1,2,4] triazolo[4,3-a]pyridin-5-amine], the IC50 in test [1] turned out to be 1060 nM; on EED (1-441)-His protein, 124 nM; in test [2], 234 nM.
The like results for `COc1ccccc1CNc1ccc(-c2ccc(N3CCN(C)CC3)cc2)c2nncn12` [Example 22, N-(2-methoxybenzyl)-8-(4-(4-methylpiperazin-1-yl)phenyl)-[1,2,4]triazolo[4,3-a] pyridin-5-amine] were, in that order, 365 nM, 56.2 nM and 42.3 nM.
Consider `COc1ccccc1CNc1ccc(-c2ccncc2)c2nncn12` [Example 24, N-(2-methoxybenzyl)-8-(pyridin-4-yl)-[1,2,4] triazolo[4,3-a]pyridin-5-amine], for which the values for the IC50 (in test [1]; at EED (1-441)-His protein; in test [2]) were 92.1 nM, 46.4 nM and 47.8 nM, respectively.
Consider `COc1ccccc1CNc1ccc(-c2ccc(S(C)(=O)=O)cc2)c2nncn12` [Example 25, N-(2-methoxybenzyl)-8-(4-(methylsulfonyl)phenyl)-[1,2,4]triazolo[4,3-a]pyridin-5-amine], for which the results for the IC50 (in test [1]; on EED (1-441)-His protein; in test [2]) were 151 nM, 33.6 nM and 50.3 nM, respectively.
On the same counts, the results for `COc1ccccc1CNc1ccc(-c2ccnnc2)c2nncn12` [Example 26, N-(2-methoxybenzyl)-8-(pyridazin-4-yl)-[1,2,4] triazolo[4,3-a]pyridin-5-amine] are 498 nM, 73.4 nM and 47.7 nM.
Consider `COc1ccccc1CNc1ccc(-c2cccnc2)c2nncn12` [Example 27, N-(2-methoxybenzyl)-8-(pyridin-3-yl)-[1,2,4] triazolo[4,3-a]pyridin-5-amine], for which the IC50 in test [1] was 266 nM; on EED (1-441)-His protein it was 44.4 nM; in test [2], 51.5 nM.
For `COc1ccccc1CNc1ccc(-c2cccc(CN(C)C)c2)c2nncn12` [Example 28, 8-(3-((dimethylamino)methyl)phenyl)-N-(2-methoxybenzyl)-[1,2,4] triazolo[4,3-a]pyridin-5-amine], the half-maximal inhibitory concentration (IC50) in test [1] amounted to 291 nM; at EED (1-441)-His protein, 37.9 nM; in test [2], 54 nM.
`COc1ccccc1CNc1ccc(-c2ccc(CN3CCC3)cc2)c2nncn12` [Example 29, 8-(4-(azetidin-1-ylmethyl)phenyl)-N-(2-methoxybenzyl)-[1,2,4]triazolo[4,3-a] pyridin-5-amine]: the IC50 in test [1] was determined as 87.7 nM; on EED (1-441)-His protein it was 13 nM; in test [2], 23.1 nM.
Regarding `COc1ccccc1CNc1ccc(-c2ccc(CN3CCOCC3)cc2)c2nncn12` [Example 30, N-(2-methoxybenzyl)-8-(4-(morpholinomethyl)phenyl)-[1,2,4]triazolo[4,3-a]pyridin-5-amine], the IC50 worked out at 483 nM in test [1], 38.2 nM at EED (1-441)-His protein and 113 nM in test [2].
On the same counts, the results for `COc1ccccc1CNc1ccc(-c2ccc(C(C)N3CCCC3)cc2)c2nncn12` (stereo not drawn) [Example 32, N-(2-methoxybenzyl)-8-(4-(1-(pyrrolidin-1-yl)ethyl)phenyl)-[1,2,4] triazolo[4,3-a]pyridin-5-amine] are 142 nM, 17.4 nM and 38 nM.
The like results for `COc1cc(F)ccc1CNc1ccc(-c2ccc(CN(C)C)cc2)c2nncn12` [Example 33, 8-(4-((dimethylamino)methyl)phenyl)-N-(4-fluoro-2-methoxybenzyl)-[1,2,4] triazolo[4,3-a]pyridin-5-amine] were, in that order, 294 nM, 84.2 nM and 277 nM.
On the same counts, the results for `COc1ccccc1CNc1ccc(-c2ccc(S(=O)(=O)N(C)C)cc2)c2nncn12` [Example 34, 4-(5-((2-methoxybenzyl)amino)-[1,2,4]triazolo[4,3-a]pyridin-8-yl)-N,N-dimethyl benzenesulfonamide] are 358 nM, 4.5 nM and 18.4 nM.
Regarding `COc1ccccc1CNc1ccc(-c2ccc(CN3CCOCC3)nc2)c2nncn12` [Example 38, N-(2-methoxybenzyl)-8-(6-(morpholinomethyl)pyridin-3-yl)-[1,2,4]triazolo[4,3-a] pyridin-5-amine], the IC50 in test [1] was 438 nM; at EED (1-441)-His protein, 32.5 nM; in test [2], 46.9 nM.
As to `COc1ccccc1CNc1ccc(-c2ccc(CN3CCN(C)CC3)cc2)c2nncn12` [Example 39, N-(2-methoxybenzyl)-8-(4-((4-methylpiperazin-1-yl)methyl)phenyl)-[1,2,4] triazolo[4,3-a]pyridin-5-amine], the IC50 is 269 nM in test [1], 15.5 nM at EED (1-441)-His protein and 37.5 nM in test [2].
Take `COc1ccccc1CNc1ccc(-c2ccc(C[N+](C)(C)[O-])cc2)c2nncn12` [Example 40, 1-(4-(5-((2-methoxybenzyl)amino)-[1,2,4]triazolo[4,3-a]pyridin-8-yl)phenyl)-N,N-dimethylmethanamine oxide]: the IC50 in test [1] turned out to be 457 nM; on EED (1-441)-His protein, 78 nM; in test [2] it was 138 nM.
On to `COc1ccccc1CNc1ccc(-c2ccc(C(=O)N(C)C)cc2)c2nncn12` [Example 41, 4-(5-((2-methoxybenzyl)amino)-[1,2,4]triazolo[4,3-a]pyridin-8-yl)-N,N-dimethyl benzamide], for which the half-inhibitory concentration (IC50) in test [1] was 305 nM; on EED (1-441)-His protein, 24.9 nM; in test [2], 47.4 nM.
In the case of `COc1ccccc1CNc1ccc(-c2ccc(C(=O)N3CCCC3)cc2)c2nncn12` [Example 42, (4-(5-((2-methoxybenzyl)amino)-[1,2,4]triazolo[4,3-a]pyridin-8-yl)phenyl) (pyrrolidin-1-yl)methanone], the half-maximal inhibitory concentration (IC50) in test [1] turned out to be 206 nM; at EED (1-441)-His protein, 16.5 nM; in test [2], 27.9 nM.

The term IC50 denotes the point on the concentration scale where inhibition reaches its midpoint.
